Results taken from publication PMC3832475, “Discovery of Dihydrochalcone as Potential Lead for Alzheimer’s Disease: In Silico and In Vitro Study” (PLoS ONE, 2013).

Target: T1, amyloid beta (Aβ40) (Homo sapiens, UniProt P05067)
T1 construct: gene APP; Aβ40 peptide (40 amino acids)
Test: ThT fluorescence fibrillization assay with purified Aβ[…]), end-point confirmed by TEM
Format: biochemical

T1 sequence (P05067 672-711 limits assumed): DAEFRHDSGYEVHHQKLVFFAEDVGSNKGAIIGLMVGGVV

`O=C(CCc1ccccc1)c1ccccc1` [Dihydrochalcone] was tested, and the IC50 was roughly 2.46 µM.
